One molecule from patent US4200639A, “Sesbanine and the use thereof in treating leukemic tumors” (The United States of America as represented by the …, priority 1979, dated 1980) can be followed below.

≈ marks a conversion by molar mass, not a printed value.

One test concerns KB Cell. Nature of the test: KB Cell Culture Screen (NCI Protocol 1.600). The format is cell-based. An excerpt: The chemotherapeutic activities of the fractions obtained in the isolation procedure may be determined by a KB Cell Culture Screen in accordance with the National Cancer Institute Protocol 1.600 [Geran et al., Cancer Chemother.
Test [1] deals with lymphocytic leukemia cells of the strain P388 (PS tumors). The test can be described thus: Survival of mice implanted with lymphocytic leukemia P388 (NCI Protocol 1.200). The note with it: mouse, in vivo.
Method: The effectiveness of alkaloid compounds against lymphocytic leukemia cells of the strain P388 (PS tumors) implanted in mice is another method of determining activity. These assays are made according to the National Cancer Institute Protocol 1.200 described in Geran et al. referred to above. […] Starting 24 hr. after the tumor implantation, previously determined dosages of each compound were injected intraperitoneally once a day for 9 days. Survival time of treated leukemic mice is compared to that of untreated leukemic mice (T/C×100). A T/C value of 100% indicated no activity.
^2 All mice were male, CD2 F1.
^3 The injection vehicle was saline.
^4 One intraperitoneal injection per day for 9 days.

With `O=C1NC(=O)[C@@]2(CC[C@@H](O)C2)c2ccncc21` (relative stereo) [sesbanine, trans-3-hydroxyspiro[cyclopentane-1,4'(1'H)[2,7]naphthyridine]-1',3'(2'H)-dione], in the test on KB Cell (Homo sapiens, KB, 72 h, 3 days after drug addition, active if ED 50 ≤30 μg./ml., read-out: ED 50 (dose that inhibits growth to 50% of control growth)), the IC50 worked out at 0.047 µg/mL (≈ 0.202 µM). In addition, the “activity of fractions during isolation (in words)” value in the test with KB Cell (among fractions of the respective separation step, Example 1) was “the most active”. In addition, the “activity against leukemia in animals (in words)” value in test [1] is “potent activity against leukemia in animals”.
